In US11684594B2, “Antifungal prophylaxis for cornea” (PRESIDENT AND FELLOWS OF HARVARD COLLEGE, priority 2020, dated 2023):
Where two headings read alike, the source gives them in different places.

Assays:
[1] = tested on: Candida, Aspergillus, and Fusarium; settings: 0.01% hypochlorous acid (Avenova), cited from earlier work
[2] = clinical or long-term topical ocular use, cited from earlier work
[3] = tested on: C. albicans (ATCC 24433); test: In vitro time kill test, yeast; type: cell-based, Candida albicans; settings: for Ratio fungicidal activity/cytotoxicity: FIG. 3, # of log10 reduction / fold-change in Trypan Blue staining vs PBS (HCLE), 1 min contact, C. albicans
Description: (§1) In Vitro Time Kill Tests. Microtiter time kill tests were carried out in vitro according to the published CLSI methods (M27-A2).^22
The inoculum was prepared by adjustment of the optical density at 600 nm (OD600) to 1.0 (corresponding to approximately 1×10^6 CFU/mL), and dilution by 1:10 in the final solution. To confirm the starting inoculum size, yeasts were plated […] and colonies counted after growth for 24 hrs at 37° C. The test solutions were neutralized at each time point by ten-fold dilution in Dey-Engley neutralizing broth (Sigma-Aldrich; St Louis, Mo.), and serially track diluted (PMID: 9343684) on Sabouraud dextrose agar (six serial 1:10 dilutions, 0.01 mL each) in technical triplicate. Colonies were counted and recorded following aerobic incubation for 24 hrs at 37° C.
(§2) To investigate the fungicidal activity of various antibiotics and antimicrobials, the reduction in fungal load after short contact times (0-15 min, FIGS. 2-3), to account for the effect of rapid dilution by the tear film, as occurs in patients after topical instillation, was measured.^23 The detection limit for time kill tests was approximately 100 CFU/mL for C. albicans, and 1 CFU/mL for F. solani and A. fumigatus (corresponding to a ≥3 log difference from the starting inoculum). 20-300 cells were considered a reliable counting range per dilution, and values were averaged when more than one dilution in the same plate were within this range.

[4] = tested on: F. solani (ATCC MYA-3636); test: In vitro time kill test, filamentous fungi; type: cell-based, Fusarium solani; settings: for Ratio fungicidal activity/cytotoxicity: FIG. 3, # of log10 reduction / fold-change in Trypan Blue staining vs PBS (HCLE), 1 min contact, F. solani
Description: as §1
(§3) ii) Filamentous fungi: The antibiotic solutions, at either full or 1/10 strength, and antiseptics were inoculated with approximately 2×10^5-2×10^6 conidia/mL of F. solani or A. fumigatus in RPMI broth (buffered with MOPS at pH 7.0; Mediatech; Manassas, Va.) for 0-15 min. Conidia were collected by flooding the agar plates with 10 mL of sterile 1×PBS and 0.1% Tween® 20 (Sigma Aldrich; St Louis, Mo.). The solution was transferred to a sterile conical tube, and particles were allowed to settle for 10 min. The resulting supernatant was transferred to a new sterile conical tube and centrifuged at 3,000×g for 5 min. The supernatant was discarded, the remaining pellet was re-suspended in RPMI broth (buffered with MOPS at pH 7.0), and the OD600 was adjusted to 1.0. In the final test solutions, at each time point the inoculum was diluted 1:10 and neutralized in Dey-Engley neutralizing broth (Sigma-Aldrich; St Louis, Mo.). Neutralized cultures were then serially diluted and plated on Sabouraud dextrose agar (two serial 1:10 dilutions, 0.1 mL each) in technical duplicate. Viable conidia were counted and recorded following aerobic incubation for 48 hrs (or as soon as growth was visible) at 25-35° C.
as §2

[5] = tested on: A. fumigatus (ATCC MYA-3626); test: In vitro time kill test, filamentous fungi; type: cell-based, Aspergillus fumigatus; settings: for Ratio fungicidal activity/cytotoxicity: FIG. 3, # of log10 reduction / fold-change in Trypan Blue staining vs PBS (HCLE), 1 min contact, A. fumigatus
Description: as §1, §3, §2

[6] = tested on: human corneal-limbal epithelial cells (HCLE); type: cell-based
Description: In Vitro Toxicity Tests. Trypan Blue assays for toxicity of various antimicrobial agents were conducted using human corneal cells. Telomerase-immortalized human corneal-limbal epithelial cells (HCLE) were thawed at 37° C. and quickly transferred to a sterile T75 cell culture flask. Cells were grown in keratinocyte serum-free medium (KSFM; Gibco™; Thermofisher Scientific; Waltham, Mass.) supplemented with bovine pituitary extract (25 μg/mL), epidermal growth factor (0.2 ng/mL), calcium chloride (0.4 mM CaCl2[…]2H2O; Sigma-Aldrich; St Louis, Mo.), and 1× penicillin/streptomycin, at 37° C. with 5% CO2. Once cells were confluent, they were passaged following trypsinization in 12- or 24-well plates. After incubation with Trypsin-EDTA (0.05%, Gibco™; Thermofisher Scientific; Waltham, Mass.) for 5-10 min at 37° C. with 5% CO2, the reaction was stopped with an equivalent volume of neutralizing medium (Dulbecco's Modified Eagle Medium/Nutrient Mixture F-12, DMEM/F-12, with HEPES and 10% newborn calf serum), centrifuged at 5,000×g for 5 min, and re-suspended in supplemented KSFM. Experiments were performed using cells from passages 31 to 36. Once cells reached confluency, they were gently washed twice with DMEM/F-12 (Gibco™; Thermofisher Scientific; Waltham, Mass.) and incubated with an antimicrobial agent for 1 min (n=2 wells per group). Controls included 1×PBS (diluent) and 1% TX-100 (cell permeabilizer). After exposure to various agents, the cells were washed three times with DMEM/F-12, incubated with 0.2% Trypan Blue for 5 min, and washed again three times with DMEM/F-12. The remaining media was aspirated and replaced with 1×PBS for imaging. Macro-images of the culture plate were taken with a smartphone camera (iPhone 7; Apple Inc.; Cupertino, Calif.), and 10× images were taken with an inverted microscope (Eclipse TS100; Nikon; Tokyo, Japan) attached to a digital camera (SPOT Insight Fire Wire; Diagnostic Instruments Inc.; Sterling Heights, Mich.). 3-6 images/well were obtained in clockwise direction from areas immediately adjacent to the center of the well, and without overlapping areas. Images were quantified in ImageJ Fiji software to determine the amount of cell uptake of Trypan Blue. Macros were created from the Color Threshoulder plugin (G. Landini) to batch process the images after color matching in Photoshop to reference images per treatment group. % Area of Trypan Blue staining per image was calculated as follows: (area of blue/area of all)×100%.

[7] = tested on: Candida albicans (ATCC 24433), Fusarium solani (ATCC MYA-3636), and Aspergillus fumigatus (ATCC MYA-3626); test: In vitro antifungal testing, statements not resolved by species; type: cell-based
Description: Several commonly used antibiotics were tested in vitro against Candida albicans (ATCC 24433), Fusarium solani (ATCC MYA-3636), and Aspergillus fumigatus (ATCC MYA-3626). Time kill activity and minimum inhibitory concentrations (MIC) were determined. Also the antiseptics benzalkonium chloride (BAK), povidone-iodine (PI), and ionic liquids (ILs) consisting of a 1:1 mixture of choline and undecanoic acid, were tested. Toxicity was assayed in vitro on cultures of human corneal epithelial cells, subjected to Trypan Blue staining. Adhesion and tissue invasion experiments were also carried out, with or without γ-irradiation, and by analysis with fluorescent microscopy.
as §1

[8] = 1:1 IL at 10 mM in 1×PBS

OCl [hypochlorous acid]
Fungicidal activity (words) [1]: rapid fungicidal and sporicidal activity within one minute of exposure time | Fungicidal activity (words) ([1]; listed as Hypochlorous acid): highly effective against fungi | Tolerability / ocular safety (words) [2]: well tolerated | Tolerability / ocular safety (words) ([2]; listed as Hypochlorous acid): easily tolerated

Choline undecanoate (1:1) [choline-undecanoate IL]
Reduction in viable C. albicans ([3]; 10 mM, within 1 min): 1-4 log | Ratio fungicidal activity/cytotoxicity [3]: > 1 | Ratio fungicidal activity/cytotoxicity ([3]; listed as novel IL): highest ratios | Reduction in viable F. solani ([4]; 10 mM, within 1 min): 1-4 log | Reduction in viable conidia ([4]; FIG. 2C, within 1 min of contact, Polytrim full strength, PI 0.5%, BAK 40 µg/mL, #3-IL 10 mM): 2 log10 | Ratio fungicidal activity/cytotoxicity [4]: > 1 | Ratio fungicidal activity/cytotoxicity ([4]; listed as novel IL): highest ratios | Reduction in viable A. fumigatus ([5]; 10 mM, within 1 min): 1-4 log | Ratio fungicidal activity/cytotoxicity [5]: > 1 | Ratio fungicidal activity/cytotoxicity ([5]; listed as novel IL): highest ratios | Trypan Blue staining (% stained area per image) compared to control treatment TX-100 (1%) ([6]; FIG. 2A, confluent HCLE monolayers, 1 min of contact, BAK 40 µg/mL, PI 0.5%, #3-IL 10 mM): significantly lower amount of staining | Cytotoxicity / toxicity ([6]; HCLE cells, post-exposure Trypan blue staining): virtually non-toxic | Efficacy/toxicity ratio, overall rank ([7]; fungicidal activity vs HCLE cytotoxicity, species not resolved): performed even better | Antifungal / fungicidal activity in vitro ([7]; species not resolved, agents at eye-drop or stated concentration): effective | Contact time within which in vitro fungicidal activity was exhibited ([7]; species-, contact time- and concentration-dependent): 1 to 15 min | Light tolerance [8]: tolerant of light exposure | pH [8]: 7.2±0.2 | Stability ([8]; room temperature): stable at room temperature for months
